According to ChEMBL document CHEMBL3639041, “Respiratory formulations and compounds for use therein” (2015):

Legend:
[1] = molecular target: T1, Mitogen-activated protein kinase 12 (Homo sapiens, UniProt P53778); test: (§1) Fluorescence Resonance Energy Transfer (FRET) Assay: The enzyme inhibitory activity of test compounds was determined by fluorescence resonance energy transfer (FRET) using synthetic peptides labelled with both donor and acceptor fluorophores (Z-LYTE, Invitrogen). Recombinant, phosphorylated p38 MAPK (MAPK12:Millipore) was diluted in HEPES buffer, mixed with compound at the desired final concentrations and incubated for 2 hr at RT. The FRET peptide (2 uM) and ATP (100 uM) were next added to the enzyme/compound mixture and incubated for 1 hr. Development reagent (protease) was added for 1 hr prior to detection in a fluorescence microplate reader. The site-specific protease only cleaves non-phosphorylated peptide and eliminates the FRET signal. Phosphorylation levels of each reaction were calculated using the ratio of coumarin emission (donor) over fluorescein emission (acceptor) with […].
T1 sequence (P53778 whole entry): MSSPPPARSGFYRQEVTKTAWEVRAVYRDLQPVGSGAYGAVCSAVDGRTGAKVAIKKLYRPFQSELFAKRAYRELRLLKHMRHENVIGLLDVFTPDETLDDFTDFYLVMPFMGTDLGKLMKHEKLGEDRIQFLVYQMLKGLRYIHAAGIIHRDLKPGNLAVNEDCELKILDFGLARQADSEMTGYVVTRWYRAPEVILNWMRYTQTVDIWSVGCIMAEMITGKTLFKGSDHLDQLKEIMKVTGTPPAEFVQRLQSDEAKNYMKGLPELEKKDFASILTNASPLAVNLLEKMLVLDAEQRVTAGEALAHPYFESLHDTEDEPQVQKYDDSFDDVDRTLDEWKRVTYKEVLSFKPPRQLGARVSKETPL

[2] = molecular target: Tyrosine-protein kinase HCK (Homo sapiens, UniProt P08631); test: as §1
[3] = molecular target: Proto-oncogene tyrosine-protein kinase Src (Homo sapiens, UniProt P12931); test: as §1

| SMILES | IC50 [1] | IC50 [2] | IC50 [3] |
| --- | --- | --- | --- |
| Cc1ccc(-n2nc(C(C)C)cc2NC(=O)Nc2ccc(Oc3ccnc4[nH]c(=O)cnc34)c3ccccc23)cc1 | 39 nM | 4 nM | 8 nM |
| CC(C)(C)c1cc(NC(=O)Nc2ccc(Oc3ccnc4[nH]c(=O)cnc34)c3ccccc23)n(-c2ccc(Cl)c(Cl)c2)n1 | 89 nM | – | 6 nM |
| Cc1ccc(-n2nc(C(C)(C)C)cc2NC(=O)Nc2ccc(Oc3ccnc4[nH]c(=O)cnc34)c3ccccc23)s1 | 41 nM | 3 nM | – |
